Where two headings read alike, the source gives them in different places.
What was measured:
[1] = test system: Male Sprague-Dawley rats (carrageenan foot edema)
Method: Rat Carrageenan Foot Pad Edema Test
Male Sprague-Dawley rats were selected in each group so that the average body weight was as close as possible. Rats were fasted with free access to water for over sixteen hours prior to the test. […] One hour later a subplantar injection of 0.1 mL of 1% solution of carrageenan/sterile 0.9% saline was administered and the volume of the injected foot was measured with a displacement plethysmometer connected to a pressure transducer with a digital indicator. Three hours after the injection of the carrageenan, the volume of the foot was again measured.

[2] = test system: Male Sprague-Dawley rats (carrageenan hyperalgesic foot withdrawal); settings: rat
Method: Rat Carrageenan-induced Analgesia Test
Male Sprague-Dawley rats were treated as previously described for the carrageenan Foot Pad Edema test. Three hours after the injection of the carrageenan, the rats were placed in a special plexiglass container with a transparent floor having a high intensity lamp as a radiant heat source, positionable under the floor. After an initial twenty minute period, thermal stimulation was begun on either the injected foot or on the contralateral uninjected foot. A photoelectric cell turned off the lamp and timer when light was interrupted by paw withdrawal. The time until the rat withdraws its foot was then measured. The withdrawal latency in seconds was determined for the control and drug-treated groups, and percent inhibition of the hyperalgesic foot withdrawal determined.

[3] = oral, 10 mg/kg body weight, foot volume 3 h after carrageenan
[4] = oral, 30 mg/kg body weight, inhibition of hyperalgesic foot withdrawal

Row | Compound | RAT PAW EDEMA % Inhibition @ 10 mg/kg body weight ([1]; in vivo) [%] | ANALGESIA % Inhibition @ 30 mg/kg body weight ([2]; in vivo) [%] | RAT PAW EDEMA % Inhibition @ 10 mg/kg body weight [1, 3] [%] | ANALGESIA % Inhibition @ 30 mg/kg body weight [2, 4] [%]
1 | COc1ccc(-c2cc(C(F)F)nn2-c2ccc(S(N)(=O)=O)cc2)cc1F [Example 59, 4-[5-(3-Fluoro-4-methoxyphenyl)-3-(difluoromethyl)-1H-pyrazol-1-yl]benzenesulfonamide] | 25 | 41 |  | 
2 | NS(=O)(=O)c1ccc(-n2nc(CO)cc2-c2ccc(Cl)cc2)cc1 [Example 171, 4-[5-(4-Chlorophenyl)-3-hydroxymethyl-1H-pyrazol-1-yl]benzenesulfonamide] |  |  | 14 | 37
3 | COc1ccc(-c2cc(C(F)F)nn2-c2ccc(S(N)(=O)=O)cc2)cc1 [Example 60, 4-[3-Difluoromethyl-5-(4-methoxyphenyl)-1-H-pyrazol-1-yl]benzenesulfonamide] |  |  | 49 | 39
4 | NS(=O)(=O)c1ccc(-n2nc(C(F)F)cc2-c2ccc(Cl)cc2)cc1 [Example 58, 4-[5-(4-Chlorophenyl)-3-(difluoromethyl)-1H-pyrazol-1-yl]benzenesulfonamide] |  |  | 36 | 65

Reference: patent US6413960B1, “Substituted pyrazolyl benzenesulfonamides for the treatment of asthma” (G.D. Searle & Co., priority 1993, dated 2002)
